From patent US4232035A, “Carbamate pesticidal compounds compositions and methods of use” (priority 1975, dated 1980)

Assays:
Format in all cases: in vivo
[1] = tested on: two-spotted mite (Tetranychus urticae Koch); assay: Mite Foliage Spray Test; design: key: A: excellent control; B: partial control; C: no control; settings: 500 parts per million foliage spray; six days
Procedure: (§1) Suspensions of the test compounds were prepared by dissolving one gram of compound in 50 milliliters of acetone in which had been dissolved 0.1 gram (10 percent of the weight of compound) of an alkylphenoxy polyethoxyethanol surfactant, as an emulsifying or dispersing agent. The resulting solution was mixed into 150 milliliters of water to give roughly 200 milliliters of a suspension containing the compound in finely divided form. The thus-prepared stock suspension contained 0.5 percent by weight of compound. The test concentrations in parts per million by weight employed in the tests described hereinbelow were obtained by appropriate dilutions of the stock suspension with water. The test procedures were as follows:
Adults and nymphal stages of the two-spotted mite (Tetranychus urticae Koch), reared on Tendergreen bean plants at 80±5 percent relative humidity, were the test organisms. Infested leaves from a stock culture were placed on the primary leaves of two bean plants six to eight inches in height, growing in a two-and-a-half inch clay pot. 150-200 Mites, a sufficient number for testing, transferred from the excised leaves to the fresh plants in a period of twenty four hours. Following the twenty four hour transfer period, the excised leaves were removed from the infested plants. The test compounds were formulated by diluting the stock suspension with water to give a suspension containing 500 parts of test compound per million parts of final formulation. The potted plants (one pot per compound) were placed on a revolving turntable and sprayed with 100-110 milliliters of test compound formulation by use of a DeVilbiss spray gun set at 40 psig. air pressure. This application, which lasted 25 seconds, was sufficient to wet the plants to run-off. As a control, 100-110 milliliters of a water solution containing acetone and emulsifier in the same concentrations as the test compound formulation, but containing no test compound, were also sprayed on infested plants. The sprayed plants were held at 80±5 percent relative humidity for six days, after which a mortality count of motile forms was made. Microscopic examination for motile forms was made on the leaves of the test plants. Any individual which was capable of locomotion upon prodding was considered living.

[2] = tested on: Mexican bean beetle (Epilachna varivestis, Muls.); assay: Mexican Bean Beetle Leaf Spray Test; design: key: A: excellent control; B: partial control; C: no control; settings: 500 parts per million leaf spray; fourth instar larvae; three days
Procedure: as §1
Fourth instar larvae of the Mexican bean beetle (Epilachna varivestis, Muls.), reared on Tendergreen bean plants at a temperature of 80°±5° F. and 50±5 percent relative humidity, were the test insects.
The test compounds were formulated by diluting the stock suspension with water to give a suspension containing 500 parts of test compound per million parts of final formulation. Potted Tendergreen bean plants of standard height and age were placed on a revolving turntable and sprayed with 100-110 milliliters of test compound formulation by use of a DeVilbiss spray gun set at 10 psig air pressure. This application, which lasted 25 seconds, was sufficient to wet plants to run-off. As a control, 100-110 milliliters of a water-acetone-emulsifier solution containing no test compound were also sprayed on infested plants. When dry, the paired leaves were separated and each was placed in a 9 centimeter Petri dish lined with moistened filter paper. Five randomly selected larvae were introduced into each dish, and the dishes were closed. The closed dishes were labeled and held at a temperature of 80°±5° F. for three days. Although the larvae could easily consume the leaf within 24 to 48 hours, no more food was added. Larvae which were unable to move the length of the body, even upon stimulation, were considered dead.

[3] = tested on: bean aphid (Aphis fabae Scop.); assay: Bean Aphid Foliage Spray Test; design: key: A: excellent control; B: partial control; C: no control; settings: 500 parts per million foliage spray; 24 hour holding period
Procedure: as §1
Adults and nymphal stages of the bean aphid (Aphis fabae Scop.) reared on potted dwarf nasturtium plants at 65°-70° F. and 50-70 percent relative humidity, constituted the test insects. For testing purposes, the number of aphids per pot was standardized to 100-150 by trimming plants containing excess aphids.
The test compounds were formulated by diluting the stock suspension with water to give a suspension containing 500 parts of test compound per million parts of final formulation.
The potted plants (one pot per compound tested) infested with 100-150 aphids, were placed on a revolving turntable and sprayed with 100-110 milliliters of test compound formulation by use of a DeVilbiss spray gun set at 40 psig. air pressure. This application, which lasted 25 seconds, was sufficient to wet the plants to run-off. As a control, 100-110 milliliters of a water-acetone-emulsifier solution containing no test compound were also sprayed on infested plants. After spraying, the pots were placed on their sides on a sheet of white standard mimeograph paper which had been previously ruled to facilitate counting. Temperature and humidity in the test room during the 24 hour holding period were 65°-70° F. and 50-70 percent, respectively. Aphids which fell onto the paper and were unable to remain standing after being uprighted were considered dead. Aphids remaining on the plants were observed closely for movement and those which were unable to move the length of the body upon stimulation by prodding were considered dead. Percent mortality was recorded for various concentration levels.

[4] = tested on: root-knot nematode (Meloidogyne incognita var. acrita); assay: Nematode Test; design: key: 1: severe galling; equal to untreated control; 2: moderate galling; 3: light galling; 4: very light galling; 5: no galling; settings: 10 ml of 500 parts per million formulation per jar of soil; cucumber indicator crop, approximately three weeks
Procedure: as §1
Infective migratory larvae of the root-knot nematode, (Meloidogyne incognita var. acrita) were reared in the greenhouse on roots of Rutgers variety tomato plant. Infected tomato plants were removed from the culture and the roots were chopped very finely. A small amount of inoculum from the roots was added to pint Mason jars containing approximately 180 cc of soil. The jars containing the inoculum and soil were capped and incubated for one week at room temperature. During this period eggs of the nematode hatched and the larvae forms migrated into the soil.
The test compounds were formulated by diluting the stock suspension with water to give a suspension containing 500 parts of test compound per million parts of final formulation. 10 milliliters of the test formulation was added to each of two jars for each dosage treated. As a control 10 milliliters of a water-acetone-emulsifier solution containing no test compound was also added to jars containing nematode larvae. The jars were capped and the contents thoroughly mixed on a kale mill for five minutes. The jars remained capped at room temperature for a period of 48 hours and the contents were then transferred to 3 inch pots. Subsequently, the pots were seeded to cucumber as an indicator crop and placed in the green house where they were cared for in the normal fashion for growing potted cucumber for approximately three weeks. These cucumber plants were then removed from the pots, the soil washed from the roots and the amount of galling visually rated.

[5] = tested on: house flies (Musca domestica, L.); assay: Fly Bait Test; design: key: A: excellent control; B: partial control; C: no control; settings: 500 parts per million bait in sugar solution; twenty four hours
Procedure: as §1
Four to six day old adult house flies (Musca domestica, L.) reared according to the specifications of the Chemical Specialties Manufacturing Association (Blue Book, McNair-Dorland Co., N.Y. 1954; pages 243-244, 261) under controlled conditions of 80°±5° F. and 50±5 percent relative humidity, were the test insects. The flies were immobilized by anesthetizing with carbon dioxide and twenty five immobilized individuals, males and females, were transferred to a cage consisting of a standard food strainer about five inches in diameter which was inverted over a wrapping-paper-covered surface. The test compounds were formulated by diluting the stock suspension with a 10 percent (by weight) sugar solution to give a suspension containing 500 parts of test compound per million parts of final formulation, by weight. Ten milliliters of the test formulation were added to a souffle cup containing a one-inch square of an absorbent cotton pad. This bait cup was introduced and centered on the blotting paper under the food strainer prior to admitting the anesthetized flies. The caged flies were allowed to feed on the bait for twenty four hours, at a temperature of 80°±5° F. and the relative humidity of 50±5 percent.

[6] = tested on: southern armyworm (Prodenia eridania, (Cram.)); assay: Southern Armyworm Leaf Spray Test; design: key: A: excellent control; B: partial control; C: no control; settings: 500 parts per million leaf spray; three days
Procedure: as §1
Larvae of the southern armyworm (Prodenia eridania, (Cram.)), reared on Tendergreen bean plants at a temperature of 80°±5° F. and a relative humidity of 50±5 percent, constituted the test insects.
The test compounds were formulated by diluting the stock suspension with water to give a suspension containing 500 parts of test compound per million parts of final formulation. Potted Tendergreen bean plants of standard height and age were placed on a revolving turntable and sprayed with 100-110 milliliters of test compound formulation by use of a DeVilbiss spray gun set at 10 psig air pressure. This application, which lasted 25 seconds, was sufficient to wet plants to run-off. As a control, 100-110 milliliters of a water-acetone-emulsifier solution containing no test compound were also sprayed on infested plants. When dry, the paired leaves were separated and each one was placed in a 9 centimeter Petri dish lined with moistened filter paper. Five randomly selected larvae were introduced into each dish and the dishes were closed. The closed dishes were labeled and held at 80°-85° F. for three days. Although the larvae could easily consume the whole leaf within twenty-four hours, no more food was added. Larvae which were unable to move the length of the body, even upon stimulation by prodding, were considered dead. Percent mortality was recorded for various concentration levels.

Structure (SMILES)	Mite, pesticidal activity rating [1]	M. Bean Beetle, pesticidal activity rating [2]	Aphid, pesticidal activity rating [3]	Nematodes, nematocidal toxicity rating (galling) [4]	H. Fly, pesticidal activity rating [5]	S. Armyworm, pesticidal activity rating [6]
CN(SSC(C)(C)C)C(=O)ON=C1CSCCS1	A	A	A	1	A	A
CCCCCCCCSSN(C)C(=O)ON=C1SCOC1C (stereo not drawn)	A	A	A	1	A	A
CSSN(C)C(=O)ON=C1SCOC1C (stereo not drawn)	A	A	A	1	A	A
CC1OCSC1=NOC(=O)N(C)SSC(C)(C)C (stereo not drawn)	A	A	A	1	A	A
CC(C)SSN(C)C(=O)ON=C1SCOC1C (stereo not drawn)	A	A	A	1	A	A
CC1OCSC1=NOC(=O)N(C)SSc1ccccc1 (stereo not drawn)	A	A	A	2	A	A
Cc1ccc(SSN(C)C(=O)ON=C2SCOC2C)cc1 (stereo not drawn)	A	A	A	1	A	A
CC1OCSC1=NOC(=O)N(C)SSc1ccc(Cl)cc1 (stereo not drawn)	A	A	A	1	A	A
CC(C)SSN(C)C(=O)ON=C1SC(C)(C)C(=O)N1C	C	A	A	1	A	A
CCCCSSN(C)C(=O)ON=C1SC(C)(C)C(=O)N1C	A	A	A	5	A	A
CN(SSC1CCCCC1)C(=O)ON=C1SC(C)(C)C(=O)N1C	C	A	A	2	C	A
CN(SSc1ccccc1)C(=O)ON=C1SC(C)(C)C(=O)N1C	C	A	A	1	B	A
Cc1ccc(SSN(C)C(=O)ON=C2SC(C)(C)C(=O)N2C)cc1	C	A	C	1	C	A
CN(SSc1ccc(C(C)(C)C)cc1)C(=O)ON=C1SC(C)(C)C(=O)N1C	C	A	C	1	C	A
CN(SSc1ccc(Cl)cc1)C(=O)ON=C1SC(C)(C)C(=O)N1C	C	A	A	1	B	A
